Measurements as given in paper PMC5954133, “Functional Characterization of a Small Alarmone Hydrolase in Corynebacterium glutamicum” (Frontiers in Microbiology, 2018).

Target: T1, RelSCg (Corynebacterium glutamicum, UniProt Q8NNR8)
T1 construct: gene Cgl2119; full-length; expressed in E. coli ER2566
T1 sequence (Q8NNR8 1-341): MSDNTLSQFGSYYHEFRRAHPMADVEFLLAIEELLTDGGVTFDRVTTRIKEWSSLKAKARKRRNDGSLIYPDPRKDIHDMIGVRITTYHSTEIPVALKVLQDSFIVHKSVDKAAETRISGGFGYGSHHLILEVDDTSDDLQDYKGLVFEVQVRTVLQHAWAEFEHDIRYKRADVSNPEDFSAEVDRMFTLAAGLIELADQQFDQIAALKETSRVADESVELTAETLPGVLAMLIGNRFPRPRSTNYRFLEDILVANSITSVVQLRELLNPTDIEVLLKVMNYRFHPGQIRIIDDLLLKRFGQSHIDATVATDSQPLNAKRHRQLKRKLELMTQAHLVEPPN
Assay: preparative pyrophosphorylation, product identified by HPLC-MS
Assay type: biochemical
Details: 12 mM ATP, 10 mM MgCl2, 50 mM Tris-HCl pH 8, 16 h

| SMILES | preparative pyrophosphorylation, product identified by HPLC-MS |
| --- | --- |
| Nc1nc2c(ncn2[C@@H]2O[C@H](COP(=O)(O)OP(=O)(O)O)[C@@H](O)[C@H]2O)c(=O)[nH]1 [GDP] | produced by RelSCg-catalyzed pyrophosphorylation of GMP, GDP or GTP |
| Nc1nc2c(ncn2[C@@H]2O[C@H](COP(=O)(O)O)[C@@H](O)[C@H]2O)c(=O)[nH]1 [GMP] | produced by RelSCg-catalyzed pyrophosphorylation of GMP, GDP or GTP |
